This is an account of results in US12378186B2, “Inhibitors of meprin α and β” (VIVORYON THERAPEUTICS N.V., priority 2016, dated 2025).

Where two headings read alike, the source gives them in different places.

In assay [1] the target is T1, hMeprin β (Homo sapiens, UniProt Q16820).
T1 sequence (Q16820 62-701): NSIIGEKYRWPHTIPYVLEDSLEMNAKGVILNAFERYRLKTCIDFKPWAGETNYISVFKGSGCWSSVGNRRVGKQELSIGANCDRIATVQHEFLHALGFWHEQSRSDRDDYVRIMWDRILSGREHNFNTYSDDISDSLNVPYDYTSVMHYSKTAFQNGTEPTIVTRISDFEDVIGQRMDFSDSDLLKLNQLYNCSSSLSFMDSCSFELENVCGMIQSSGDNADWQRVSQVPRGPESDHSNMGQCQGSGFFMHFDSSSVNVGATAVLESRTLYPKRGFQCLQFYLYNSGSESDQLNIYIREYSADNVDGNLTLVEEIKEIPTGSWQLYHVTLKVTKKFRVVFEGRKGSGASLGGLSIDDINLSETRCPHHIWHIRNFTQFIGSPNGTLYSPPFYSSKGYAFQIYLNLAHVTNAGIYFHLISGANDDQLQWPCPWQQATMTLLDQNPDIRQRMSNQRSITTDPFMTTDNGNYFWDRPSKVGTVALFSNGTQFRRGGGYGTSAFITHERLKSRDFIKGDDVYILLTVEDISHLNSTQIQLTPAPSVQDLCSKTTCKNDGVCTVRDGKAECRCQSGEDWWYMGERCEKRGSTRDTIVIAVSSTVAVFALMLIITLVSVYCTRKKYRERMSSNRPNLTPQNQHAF
Put plainly: Enzymatic assay, cleavage of internally quenched peptide substrate, hMeprin β. In kind it is biochemical. The procedure:
(§1) A typical assay of 250 μl total volume measured in black 96 well plates consisted of 100 μl buffer, 50 μl enzyme at a final concentration of 5e-8 M to 5e-9 M, 50 μl substrate (0.15 to 80 μM, in buffer, 0.5% DMSO) and 50 μl inhibitor solution (in buffer, 1% DMSO). In case of 125 μl assay volume (black 96 half area well plates) all volumes were cut in half. Enzymatic activity of ADAMs was measured in 384 well plates with 60 μl total assay volume consisting of 20 μl inhibitor, 20 μl buffer, 10 μl enzyme and 10 μl substrate.
(§2) Ki values were assessed combining 4 substrate concentrations (5-40 μM) with at least 5 inhibitor concentrations. […] Initial velocities were determined and converted into concentration units applying a standard curve obtained after complete conversion of different substrate concentrations under assay conditions. All measurements were performed using a fluorescence plate reader (FLUOstar OPTIMA, BMG Labtech) at 30° C. The kinetic parameters were determined at least in duplicates on separate days. The excitation/emission wavelength was 340/420 nm. The kinetic data was evaluated using GraFit software (version 7.0.3, Erithacus Software).
(§3) The following compounds according to the present invention were synthesized using the above general procedures. IC50 refers to the average IC50 values measured as described above, SD (IC50) refers to the standard deviation of the average IC50 values, Ki refers to the average K; values measured as described above, and SD (Ki) to the standard deviation of the average Ki values.

The target of assay [2] is T2, hMeprin α (Homo sapiens, UniProt Q16819).
T2 sequence (Q16819 66-746): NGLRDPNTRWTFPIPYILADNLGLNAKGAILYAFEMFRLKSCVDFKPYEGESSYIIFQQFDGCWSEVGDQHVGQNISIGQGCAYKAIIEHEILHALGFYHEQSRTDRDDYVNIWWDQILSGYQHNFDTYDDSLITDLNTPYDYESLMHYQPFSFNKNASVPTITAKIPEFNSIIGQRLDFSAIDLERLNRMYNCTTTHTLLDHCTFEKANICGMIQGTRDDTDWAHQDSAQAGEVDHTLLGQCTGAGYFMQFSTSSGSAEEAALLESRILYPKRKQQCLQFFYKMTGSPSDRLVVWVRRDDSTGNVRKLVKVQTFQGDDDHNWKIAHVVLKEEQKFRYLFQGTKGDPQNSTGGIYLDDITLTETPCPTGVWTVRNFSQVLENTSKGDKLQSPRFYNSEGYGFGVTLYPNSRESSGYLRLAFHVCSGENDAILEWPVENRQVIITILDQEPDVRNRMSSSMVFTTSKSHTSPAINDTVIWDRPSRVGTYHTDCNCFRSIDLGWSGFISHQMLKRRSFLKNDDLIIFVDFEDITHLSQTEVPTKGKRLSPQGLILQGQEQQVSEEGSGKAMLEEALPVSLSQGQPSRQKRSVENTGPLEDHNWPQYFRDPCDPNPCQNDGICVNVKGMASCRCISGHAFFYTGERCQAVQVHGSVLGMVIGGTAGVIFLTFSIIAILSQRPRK
Put plainly: biochemical. To be noted: 30° C., 40 mM HEPES pH 7.4; for IC50: average IC50, 10 μM substrate, read-out: Meprin Alpha IC50; for Ki: average Ki, 4 substrate concentrations (5-40 μM), read-out: Meprin Alpha Ki. In kind it is biochemical. As to the method:
as §1, §2, §3

The mark [3] stands for this setting: average IC50, 10 μM substrate, 30° C., 40 mM Tris pH 8.0, read-out: Meprin Beta IC50.

Broadly, the IC50 is the concentration that inhibits the measured activity by half. For `O=C(O)c1cccc(CN2CCCC2C(=O)NO)c1` (stereo in doubt) [Example 12, 3-[[(2R)-2-(Hydroxycarbamoyl)pyrrolidin-1-yl]methyl]benzoic acid], 31400 nM corresponded to half-maximal inhibition in assay [1] (IC50).

Turning to `O=C(O)c1cccc(CN2CCCC2C(=O)NO)c1` (stereo in doubt) [Example 13, 3-[[(2S)-2-(Hydroxycarbamoyl)pyrrolidin-1-yl]methyl]benzoic acid], the midpoint of inhibition in assay [1], the IC50, lay at 41100 nM.

In general, Ki refers to a dissociation constant, usually derived from enzyme kinetics or from competition with a known ligand. In the case of `O=C(CN(Cc1ccc(C(=O)O)cc1)Cc1ccc(C(=O)O)cc1)NO` [Example 1, 4-[[(4-Carboxyphenyl)methyl-[2-(hydroxyamino)-2-oxo-ethyl]amino]methyl]benzoic acid], in assay [1], inhibition was half-maximal at 468 nM (IC50) and the Ki was 223 nM. In addition, the IC50 in assay [2] came out at 85700 nM.

For `O=C(CN(Cc1cccc(C(=O)O)c1)Cc1cccc(C(=O)O)c1)NO` [Example 2, 3-[[(3-Carboxyphenyl)methyl-[2-(hydroxyamino)-2-oxo-ethyl]amino]methyl]benzoic acid], in assay [1], affinity was put at a Ki of 18 nM. Also, in assay [2], the half-maximal inhibitory concentration (IC50) came out at 30900 nM and the Ki is 10400 nM.

In turn, `O=C(CNCc1cccc(C(=O)O)c1)NO` [Example 3, 3-[[[2-(Hydroxyamino)-2-oxo-ethyl]amino]-methyl]benzoic acid] returned a Ki in assay [1] of 183 nM. Moreover, in assay [1] (setting [3]), the IC50 was found to be 377 nM.

Consider `O=C(CN(Cc1ccc2c(c1)OCO2)Cc1ccc2c(c1)OCO2)NO` [Example 4, 2-[bis(1,3-Benzodioxol-5-ylmethyl)amino]-ethanehydroxamic acid], for which, in assay [1], the half-maximal inhibitory concentration (IC50) was 5360 nM and the affinity corresponds to a Ki of 6560 nM. In assay [2], the IC50 worked out at 830 nM and the Ki was determined as 274 nM.

As to `COc1cccc(CN(CC(=O)NO)Cc2cccc(OC)c2)c1` [Example 5, 2-[bis[(3-Methoxyphenyl)methyl]amino]-ethanehydroxamic acid], in assay [1], the half-maximal inhibitory concentration (IC50) amounted to 25600 nM and the Ki turned out to be 15700 nM.

With `COc1ccc(CN(CC(=O)NO)Cc2cccc(C(=O)O)c2)cc1` [Example 6, 3-[[[2-(Hydroxyamino)-2-oxo-ethyl]-[(4-methoxyphenyl)methyl]amino]-methyl]benzoic acid], the values for the Ki in assay [1] and in assay [2] were 39 nM and 1210 nM, respectively.

Take `O=C(CN(Cc1ccc(C(=O)O)cc1)Cc1cccc(C(=O)O)c1)NO` [Example 7, 3-[[(4-Carboxyphenyl)methyl-[2-(hydroxyamino)-2-oxo-ethyl]amino]methyl]benzoic acid]: the affinity in assay [1] corresponds to a Ki of 101 nM. Moreover, the IC50 was found to be 206 nM in assay [1] (setting [3]) and 44400 nM in assay [2].

`O=C(CN(Cc1ccc(-c2ccccc2)cc1)Cc1cccc(C(=O)O)c1)NO` [Example 8, 3-[[[2-(Hydroxyamino)-2-oxo-ethyl]-[(4-biphenyl)methyl]amino]-methyl]benzoic acid]: in assay [1], the half-inhibitory concentration (IC50) worked out at 1440 nM and the Ki is 1030 nM.

With `CCCOc1ccc(CN(CC(=O)NO)Cc2cccc(C(=O)O)c2)cc1` [Example 9, 3-[[[2-(Hydroxyamino)-2-oxo-ethyl]-[(4-propoxyphenyl)methyl]amino]-methyl]benzoic acid], in assay [1], the half-maximal inhibitory concentration (IC50) was 2250 nM and the Ki turned out to be 874 nM.

For the molecule `COc1ccc(CN(CC(=O)NO)Cc2cccc(C(=O)O)c2)cc1F` [Example 10, 3-[[(3-Fluoro-4-methoxy-phenyl)methyl-[2-(hydroxyamino)-2-oxo-ethyl]amino]methyl]benzoic acid], in assay [1], the IC50 was 352 nM and the inhibitory constant (Ki) is 157 nM. Moreover, in assay [2], the 50% inhibitory concentration (IC50) was determined as 3740 nM and the Ki is 1090 nM.

In the case of `COc1cc(F)c(CN(CC(=O)NO)Cc2cccc(C(=O)O)c2)c(F)c1` [Example 11, 3-[[(2,6-Difluoro-4-methoxy-phenyl)methyl-[2-(hydroxyamino)-2-oxo-ethyl]amino]methyl]benzoic acid], the IC50 in assay [1] worked out at 355 nM; in assay [2], 2120 nM. For the same molecule, the Ki was 154 nM in assay [1] and 1260 nM in assay [2].

The molecule `COc1cccc(CN(CC(=O)NO)Cc2cccc(C(=O)O)c2)c1` [Example 14, 3-[[[2-(Hydroxyamino)-2-oxo-ethyl]-[(3-methoxyphenyl)methyl]amino]-methyl]benzoic acid] came in with an inhibition constant (Ki) in assay [1] of 288 nM. The half-inhibitory concentration (IC50) in assay [1] (setting [3]) was determined as 559 nM.

As to `COc1ccc(CN(CC(=O)NO)Cc2ccc(OC)cc2)cc1` [Example 15, 2-[bis[(4-Methoxyphenyl)methyl]amino]ethane-hydroxamic acid], in assay [1], the midpoint of inhibition, the IC50, lay at 31800 nM.

Turning to `COc1ccc(CN(CC(=O)NO)Cc2ccccc2C(=O)O)cc1` [Example 16, 2-[[[2-(Hydroxyamino)-2-oxo-ethyl]-[(4-methoxyphenyl)methyl]amino]-methyl]benzoic acid], half-maximal inhibition in assay [1] (IC50) required 22800 nM.

Turning to `O=C(CN(Cc1ccccc1)Cc1cccc(C(=O)O)c1)NO` [Example 17], in assay [1], the inhibition constant (Ki) turned out to be 797 nM.

In the case of `Cc1ccc(CN(CC(=O)NO)Cc2cccc(C(=O)O)c2)cc1` [Example 18, 3-[[[2-(Hydroxyamino)-2-oxo-ethyl]-(p-tolyl-methyl)amino]methyl]benzoic acid], in assay [1], the IC50 amounted to 361 nM and the Ki is 170 nM. Further, in assay [2], the IC50 turned out to be 4670 nM and the Ki worked out at 1990 nM.

`N#Cc1ccc(CN(CC(=O)NO)Cc2cccc(C(=O)O)c2)cc1` [Example 19, 3-[[(4-Cyanophenyl)methyl-[2-(hydroxyamino)-2-oxo-ethyl]amino]methyl]benzoic acid]: the values for the inhibition constant Ki in assay [1] and in assay [2] were 125 nM and 1950 nM, respectively. Moreover, the half-maximal inhibitory concentration (IC50) was determined as 320 nM in assay [1] (setting [3]) and 4880 nM in assay [2].

On to `N#Cc1ccc(CN(CC(=O)NO)Cc2ccc(C#N)cc2)cc1` [Example 55, 2-[bis[(4-cyanophenyl)methyl]amino]-ethanehydroxamic acid], for which, in assay [2], the IC50 is 5660 nM and the Ki was 1600 nM.

In the case of `COc1c(Cl)ccc(CN(CC(=O)NO)Cc2ccc(Cl)c(OC)c2F)c1F` [Example 56, 2-[bis[(4-chloro-2-fluoro-3-methoxy-phenyl)-methyl]amino]ethanehydroxamic acid], in assay [2], the half-inhibitory concentration (IC50) is 4980 nM and the Ki was found to be 1010 nM.

For the molecule `N#Cc1ccc(CN(CCC(=O)NO)Cc2ccc(C#N)cc2)cc1` [Example 57, 3-[bis[(4-cyanophenyl)methyl]amino]-propanehydroxamic acid], the Ki in assay [2] is 1200 nM.

`O=C(CCN(Cc1ccc(Cl)cc1F)Cc1ccc(Cl)cc1F)NO` [Example 62, 3-[bis[(4-chloro-2-fluoro-phenyl)methyl]-amino]propanehydroxamic acid]: the inhibition constant (Ki) in assay [2] is 169 nM.

For `COc1c(Cl)ccc(CN(CCC(=O)NO)Cc2ccc(Cl)c(OC)c2F)c1F` [Example 65, 3-[bis[(4-chloro-2-fluoro-3-methoxy-phenyl)-methyl]amino]propanehydroxamic acid], the inhibition constant (Ki) in assay [2] was 157 nM.

In the case of `O=C(CN(Cc1ccccc1)Cc1ccccc1)NO` [Example 67, 2-(dibenzylamino) ethanehydroxamic acid], in assay [2], the IC50 turned out to be 7880 nM and the Ki is 3090 nM.
